Source: patent US20080286373A1, “Ziprasidone formulations” (priority 2007, published 2008)
Structures can show the parent of a compound that is named as a salt. Each block holds one molecule with its values, some of them ahead of it.

How the values were obtained:
[1] = Solubility of ziprasidone hydrochloride monohydrate in various solvents (Table 1); assay type: physicochemical
[2] = Solubility of ziprasidone hydrochloride monohydrate in excipients (Table 2); assay type: physicochemical
Description: Solubility in various excipients that are frequently used to improve solubility was also tested and the results thereof are in Table 2 below.

[3] = Within 45 minutes; pH 7.5, 900 ml aqueous monobasic sodium phosphate with 2w/v % Na dodecyl sulfate, USP 2 paddles 75 rpm; formulation of U.S. Pat. No. 6,150,366, mean particle size <85 microns; cited from earlier work

solubility ([1]; solvent ACN): <1%
solubility ([1]; solvent Acetone): <1%
solubility ([1]; solvent Acetone/water): <1%
solubility ([1]; solvent DCM): <1%
solubility ([1]; solvent DMF/DMA/DMSO): 1.5%
solubility ([1]; solvent DMF/water 80/20): <1%
solubility ([1]; solvent Ethanol): <1%
solubility ([1]; solvent Isopropanol): <1%
solubility ([1]; solvent Methanol): 1.5%
solubility ([1]; solvent Methanol/acetic acid 90/10): <1%
solubility ([1]; solvent Methanol/water 60/40): <1%
solubility ([1]; solvent Methanol/water 80/20): 1.5%
solubility ([1]; solvent THF): <1%
solubility ([2]; 0.1 N HCl solution, simulated gastric fluid): 500 µg/mL
solubility ([2]; 5% caprolactam in water, aqueous with cosolvent or surfactant or cyclodextrin, 5% caprolactam in solution in water): 300 µg/mL
solubility ([2]; 20% Lactic acid in PEG 400, organic solvent or mixture): 1300 µg/mL
solubility ([2]; 20% Lutrol in TPGS, organic solvent or mixture): 1000 µg/mL
solubility ([2]; Benzyl alcohol, organic solvent or mixture): 2900 µg/mL
solubility ([2]; Benzyl benzoate, organic solvent or mixture): 300 µg/mL
solubility ([2]; Ethanol, organic solvent or mixture): 400 µg/mL
solubility ([2]; Gelucire 44/14, oil or lipid): 1000 µg/mL
solubility ([2]; Gelucire 50/13, oil or lipid): 1000 µg/mL
solubility ([2]; Glacial acetic acid, organic solvent or mixture): 2800 µg/mL
solubility ([2]; Glycerol, organic solvent or mixture): 1250 µg/mL
solubility ([2]; Labrofac (Capric triglyceride PEG-4 ester), oil or lipid): 900 µg/mL
solubility ([2]; Lactic acid (85% strength), organic solvent or mixture): 10000 µg/mL
solubility ([2]; Maisine 35-1 (glycerol monolinoleate), oil or lipid): 1000 µg/mL
solubility ([2]; N-methyl 2-pyrrolidone, organic solvent or mixture): 10000 µg/mL
solubility ([2]; PEG 400, organic solvent or mixture): 2500 µg/mL
solubility ([2]; PEG 6000, organic solvent or mixture): 2500 µg/mL
solubility ([2]; Peceol (glycerol monooleate 40), oil or lipid): 1000 µg/mL
solubility ([2]; Propylene glycol, organic solvent or mixture): 2000 µg/mL
solubility ([2]; Span 80, organic solvent or mixture): 500 µg/mL
solubility ([2]; Tween 20, organic solvent or mixture): 3000 µg/mL
solubility ([2]; Tween 80, organic solvent or mixture): 2100 µg/mL
solubility ([2]; Water): 30 µg/mL
solubility ([2]; aqueous buffer, Phosphate buffer pH 6.8 (without SLS)): < 10 µg/mL
Molecule: O=C1Cc2cc(CCN3CCN(c4nsc5ccccc45)CC3)c(Cl)cc2N1 [Ziprasidone HCl monohydrate, ziprasidone hydrochloride monohydrate]

Molecule: Ziprasidone
ziprasidone dissolved [3]: 70%
